{
  "source": "patent US4919937A",
  "about": "“Percutaneous administration of tamoxifen” (priority 1984, dated 1990)",
  "key": {"[1]": {"conditions": "passage through the liver; cited from earlier work"}, "[2]": {"test": "tracer doses of tritiated 4-hydroxytamoxifen applied in alcoholic solution 24 hours before excision of cancerous breasts", "type": "in vivo", "conditions": "human, breast tissue, topical or ocular, read-out: portion of the radioactivity metabolized to unidentified products"}, "[3]": {"system": "protein structures corresponding to hormonal receptors", "test": "tracer doses of tritiated 4-hydroxytamoxifen applied in alcoholic solution 24 hours before excision of cancerous breasts", "type": "in vivo"}, "[4]": {"test": "radioactive 4-hydroxytamoxifen applied on the skin of a healthy subject, urinary radioactivity in 15 days and circulating blood", "type": "in vivo", "excerpt": "A small portion of the radioactivity is metabolized to unidentified products (3%). In parallel, this same product in radioactive form was applied on the skin of a healthy subject, and a calculation was made of the radioactivity appearing in the urine in 15 days following administration of the product. […] It is only as a secondary effect that it reaches the liver, where it is inactivated."}, "[5]": {"conditions": "tamoxifen per os; 4-hydroxytamoxifen orally or parenterally, other than percutaneously; cited from earlier work"}, "[6]": {"system": "receptor molecules in cancerous mammary tumors", "test": "percutaneous application on the skin overlying cancerous mammary tumors", "type": "in vivo"}, "solubility in alcohol": {"test": "solubility in alcohol", "type": "physicochemical", "excerpt": "(§1) The daily doses of product to be administered are easy to calculate in terms of the absorption coefficients of the drugs and the doses which it is desired to obtain for 4-hydroxytamoxifen and progesterone at the level of their receptor molecules."}, "cutaneous absorption": {"test": "cutaneous absorption", "type": "in vivo", "conditions": "skin, topical or ocular; percutaneous; read-out: coefficient of cutaneous absorption", "excerpt": "as §1"}, "[7]": {"conditions": "cited from earlier work; for hepatic by-pass after percutaneous administration: alcoholic solution"}, "progesterone receptor": {"system": "progesterone receptor", "conditions": "common knowledge; cited from earlier work"}, "progesterone receptors": {"system": "progesterone receptors", "test": "tracer doses of tritiated progesterone administered percutaneously under the same conditions", "type": "in vivo", "description": "In another experiment, tracer doses of tritiated progesterone were administered under the same conditions as 4-hydroxytamoxifen."}},
  "data": [
    {"smiles": "CC/C(=C(\\c1ccc(O)cc1)c1ccc(OCCN(C)C)cc1)c1ccccc1", "note": "[4-hydroxytamoxifen, 1-[4-(2-N-dimethylaminoethoxy)phenyl]-1-(4-hydroxyphenyl)-2-phenylbut-1-(Z)-ene]", "values": [
      {"measurement": "metabolism/degradation after oral administration", "setting": "[1]", "value": "more rapidly degraded than tamoxifen"},
      {"measurement": "metabolised at 24 h", "setting": "[2]", "value": 3, "unit": "%"},
      {"measurement": "form found at the hormonal receptors", "setting": "[3]", "value": "appeared in its original form at the level of the protein structures corresponding to hormonal receptors"},
      {"measurement": "product in circulating blood", "setting": "[4]; circulating blood", "value": "only traces of the product are detectable"},
      {"measurement": "destruction of the product from urinary elimination", "setting": "[4]; healthy subject, urine, 15 days", "value": "weak and gradual destruction of the product"},
      {"measurement": "harmful side effects: stimulation of the ovaries", "setting": "[5]", "value": "detrimental paradoxical stimulation of the ovaries"},
      {"measurement": "passage through the cutaneous barrier and uptake on receptor molecules in tumors", "setting": "[6]; 60% strength alcoholic solution", "value": "capable of passing through the cutaneous barrier and being taken up on the receptor molecules in these tumors"},
      {"measurement": "solubility in alcohol", "setting": "solubility in alcohol", "value": "soluble in alcohol"},
      {"measurement": "Fa", "setting": "cutaneous absorption", "value": "~1", "unit": "%"}
    ]},
    {"smiles": "CC/C(=C(\\c1ccccc1)c1ccc(OCCN(C)C)cc1)c1ccccc1", "note": "[tamoxifen, 1-[4-(2-N-dimethylaminoethoxy)phenyl]-1,2diphenylbut-1-(Z)-ene]", "values": [
      {"measurement": "metabolism/degradation after oral administration", "setting": "[1]", "value": "converted during its passage through the liver to numerous metabolites"},
      {"measurement": "harmful side effects: stimulation of the ovaries", "setting": "[5]", "value": "a paradoxical stimulation of the ovaries"},
      {"measurement": "activation to the 4-hydroxy derivative by the percutaneous route", "setting": "[6]; percutaneous, breast", "value": "cannot be activated to its 4-hydroxy derivative by the percutaneous route"}
    ]},
    {"smiles": "C[C@]12CC[C@H]3[C@@H](CCC4=CC(=O)CC[C@@]43C)[C@@H]1CC[C@@H]2O", "note": "[testosterone]", "values": [
      {"measurement": "hepatic by-pass after percutaneous administration", "setting": "[7]", "value": "hepatic by-passes thus produced were demonstrated"}
    ]},
    {"smiles": "CC(=O)[C@H]1CC[C@H]2[C@@H]3CCC4=CC(=O)CC[C@]4(C)[C@H]3CC[C@]12C", "note": "[progesterone]", "values": [
      {"measurement": "metabolism/degradation after oral administration", "setting": "[1]", "value": "completely destroyed during its passage through the liver"},
      {"measurement": "topical retention", "setting": "[7]; alcoholic solution or 60% strength aqueous alcoholic gel", "value": 48, "unit": "h"},
      {"measurement": "hepatic by-pass after percutaneous administration", "setting": "[7]", "value": "hepatic by-passes thus produced were demonstrated"},
      {"measurement": "action on the progesterone receptor", "setting": "progesterone receptor", "value": "binds to is own receptor, which it activates"},
      {"measurement": "radioactivity in the blood", "setting": "progesterone receptors; blood", "value": "No radioactivity circulates in the blood"},
      {"measurement": "uptake by specific receptors and inactivation", "setting": "progesterone receptors; conclusion", "value": "taken up by specific receptors and that it is inactivated for the most part in situ"},
      {"measurement": "form found, binding to the progesterone receptors and metabolism", "setting": "progesterone receptors; tritiated, percutaneous, excised cancerous breast", "value": "appeared in its original form, partly bound to the progesterone receptors and partly metabolized"},
      {"measurement": "metabolites in the urine", "setting": "progesterone receptors; urine", "value": "various metabolites of progesterone appeared in the 56 hours following the experiment"},
      {"measurement": "solubility in alcohol", "setting": "solubility in alcohol", "value": "soluble in alcohol"},
      {"measurement": "Fa", "setting": "cutaneous absorption", "value": 10, "unit": "%"}
    ]}
  ]
}
